The supplement of paper PMC10307832

How the values were obtained:
Assay in all cases: relative viability (nuclei count vs DMSO), 5 days (fraction); higher = more cells survive
H3255 = tested on: H3255
Method in brief: (§1)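 Lung cancer cell lines in 1536-well plates were dosed by pin tool the day after seeding, either with one drug alone or with a fixed anchor-drug dose plus five library-drug doses (not always all listed) in √10 steps. After 5 days, cells were fixed and their nuclei stained in one step (final 0.05% Triton X-100, 1% formaldehyde, 1 ug/ml Hoechst), then counted on 4× images. Relative viability is the nuclei count in treated wells divided by that in vehicle wells. Values are medians of duplicate plates.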

NCI-H2087 = tested on: NCI-H2087
Method in brief: as §1

NCI-H2023 = tested on: NCI-H2023
Method in brief: as §1

PC-3 [JPC-3] = tested on: PC-3 [JPC-3]
Method in brief: as §1

NCI-H650 = tested on: NCI-H650
Method in brief: as §1

LC-2-ad = tested on: LC-2-ad
Method in brief: as §1

CAL-12T = tested on: CAL-12T
Method in brief: as §1

201T = tested on: 201T
Method in brief: as §1

ABC-1 = tested on: ABC-1
Method in brief: as §1

NCI-H1650 = tested on: NCI-H1650
Method in brief: as §1

NCI-H661 = tested on: NCI-H661
Method in brief: as §1

NCI-H441 = tested on: NCI-H441
Method in brief: as §1

NCI-H520 = tested on: NCI-H520
Method in brief: as §1

NCI-H460 = tested on: NCI-H460
Method in brief: as §1

NCI-H727 = tested on: NCI-H727
Method in brief: as §1

NCI-H1944 = tested on: NCI-H1944
Method in brief: as §1

BEN = tested on: BEN
Method in brief: as §1

NCI-H1915 = tested on: NCI-H1915
Method in brief: as §1

LCLC-97TM1 = tested on: LCLC-97TM1
Method in brief: as §1

NCI-H1651 = tested on: NCI-H1651
Method in brief: as §1

A-427 = tested on: A-427
Method in brief: as §1

Compound: O=c1cc(-c2cccc3c2Sc2ccccc2S3)oc(N2CCOCC2)c1 + CC(=O)c1c(C)c2cnc(Nc3ccc(N4CCNCC4)cn3)nc2n(C2CCCC2)c1=O [Palbociclib] (partner 0.5 µM)
- relative viability (H3255; first compound 0.08 µM): 0.334
- relative viability (H3255; first compound 0.253 µM): 0.295
- relative viability (H3255; first compound 0.8 µM): 0.305
- relative viability (H3255; first compound 2.53 µM): 0.278
- relative viability (H3255; first compound 8 µM): 0.33
- relative viability (NCI-H2087; first compound 0.08 µM): 0.23
- relative viability (NCI-H2087; first compound 0.253 µM): 0.234
- relative viability (NCI-H2087; first compound 0.8 µM): 0.203
- relative viability (NCI-H2087; first compound 2.53 µM): 0.222
- relative viability (NCI-H2087; first compound 8 µM): 0.201
- relative viability (NCI-H2023; first compound 0.08 µM): 0.379
- relative viability (NCI-H2023; first compound 0.253 µM): 0.407
- relative viability (NCI-H2023; first compound 0.8 µM): 0.407
- relative viability (NCI-H2023; first compound 2.53 µM): 0.369
- relative viability (NCI-H2023; first compound 8 µM): 0.291
- relative viability (PC-3 [JPC-3]; first compound 0.08 µM): 0.471
- relative viability (PC-3 [JPC-3]; first compound 0.253 µM): 0.54
- relative viability (PC-3 [JPC-3]; first compound 0.8 µM): 0.559
- relative viability (PC-3 [JPC-3]; first compound 2.53 µM): 0.482
- relative viability (PC-3 [JPC-3]; first compound 8 µM): 0.584
- relative viability (NCI-H650; first compound 0.08 µM): 0.346
- relative viability (NCI-H650; first compound 0.253 µM): 0.323
- relative viability (NCI-H650; first compound 0.8 µM): 0.372
- relative viability (NCI-H650; first compound 2.53 µM): 0.278
- relative viability (NCI-H650; first compound 8 µM): 0.36
- relative viability (LC-2-ad; first compound 0.08 µM): 0.513
- relative viability (LC-2-ad; first compound 0.253 µM): 0.51
- relative viability (LC-2-ad; first compound 0.8 µM): 0.469
- relative viability (LC-2-ad; first compound 2.53 µM): 0.502
- relative viability (LC-2-ad; first compound 8 µM): 0.425
- relative viability (CAL-12T; first compound 0.08 µM): 0.369
- relative viability (CAL-12T; first compound 0.253 µM): 0.57
- relative viability (CAL-12T; first compound 0.8 µM): 0.498
- relative viability (CAL-12T; first compound 2.53 µM): 0.404
- relative viability (CAL-12T; first compound 8 µM): 0.292
- relative viability (201T; first compound 0.08 µM): 0.348
- relative viability (201T; first compound 0.253 µM): 0.362
- relative viability (201T; first compound 0.8 µM): 0.373
- relative viability (201T; first compound 2.53 µM): 0.348
- relative viability (201T; first compound 8 µM): 0.359
- relative viability (ABC-1; first compound 0.08 µM): 1.04
- relative viability (ABC-1; first compound 0.253 µM): 0.836
- relative viability (ABC-1; first compound 0.8 µM): 0.474
- relative viability (ABC-1; first compound 2.53 µM): 0.767
- relative viability (ABC-1; first compound 8 µM): 0.674
- relative viability (NCI-H1650; first compound 0.08 µM): 0.377
- relative viability (NCI-H1650; first compound 0.253 µM): 0.38
- relative viability (NCI-H1650; first compound 0.8 µM): 0.284
- relative viability (NCI-H1650; first compound 2.53 µM): 0.311
- relative viability (NCI-H1650; first compound 8 µM): 0.353
- relative viability (NCI-H661; first compound 0.08 µM): 0.416
- relative viability (NCI-H661; first compound 0.253 µM): 0.438
- relative viability (NCI-H661; first compound 0.8 µM): 0.393
- relative viability (NCI-H661; first compound 2.53 µM): 0.394
- relative viability (NCI-H661; first compound 8 µM): 0.379
- relative viability (NCI-H441; first compound 0.08 µM): 0.189
- relative viability (NCI-H441; first compound 0.253 µM): 0.187
- relative viability (NCI-H441; first compound 0.8 µM): 0.215
- relative viability (NCI-H441; first compound 2.53 µM): 0.203
- relative viability (NCI-H441; first compound 8 µM): 0.18
- relative viability (NCI-H520; first compound 0.08 µM): 0.233
- relative viability (NCI-H520; first compound 0.253 µM): 0.22
- relative viability (NCI-H520; first compound 0.8 µM): 0.21
- relative viability (NCI-H520; first compound 2.53 µM): 0.243
- relative viability (NCI-H520; first compound 8 µM): 0.231
- relative viability (NCI-H460; first compound 0.08 µM): 0.0971
- relative viability (NCI-H460; first compound 0.253 µM): 0.159
- relative viability (NCI-H460; first compound 0.8 µM): 0.13
- relative viability (NCI-H460; first compound 2.53 µM): 0.154
- relative viability (NCI-H460; first compound 8 µM): 0.135
- relative viability (NCI-H727; first compound 0.08 µM): 0.613
- relative viability (NCI-H727; first compound 0.253 µM): 0.813
- relative viability (NCI-H727; first compound 2.53 µM): 0.512
- relative viability (NCI-H727; first compound 8 µM): 0.613
- relative viability (NCI-H1944; first compound 0.08 µM): 0.313
- relative viability (NCI-H1944; first compound 0.253 µM): 0.329
- relative viability (NCI-H1944; first compound 0.8 µM): 0.302
- relative viability (NCI-H1944; first compound 2.53 µM): 0.335
- relative viability (NCI-H1944; first compound 8 µM): 0.318
- relative viability (BEN; first compound 0.08 µM): 0.464
- relative viability (BEN; first compound 0.253 µM): 0.447
- relative viability (BEN; first compound 0.8 µM): 0.477
- relative viability (BEN; first compound 2.53 µM): 0.452
- relative viability (BEN; first compound 8 µM): 0.499
- relative viability (NCI-H1915; first compound 0.08 µM): 0.549
- relative viability (NCI-H1915; first compound 0.253 µM): 0.527
- relative viability (NCI-H1915; first compound 0.8 µM): 0.541
- relative viability (NCI-H1915; first compound 2.53 µM): 0.509
- relative viability (NCI-H1915; first compound 8 µM): 0.497
- relative viability (LCLC-97TM1; first compound 0.08 µM): 0.247
- relative viability (LCLC-97TM1; first compound 0.253 µM): 0.26
- relative viability (LCLC-97TM1; first compound 0.8 µM): 0.245
- relative viability (LCLC-97TM1; first compound 2.53 µM): 0.228
- relative viability (LCLC-97TM1; first compound 8 µM): 0.241
- relative viability (NCI-H1651; first compound 0.08 µM): 0.523
- relative viability (NCI-H1651; first compound 0.253 µM): 0.537
- relative viability (NCI-H1651; first compound 0.8 µM): 0.524
- relative viability (NCI-H1651; first compound 2.53 µM): 0.509
- relative viability (NCI-H1651; first compound 8 µM): 0.537
- relative viability (A-427; first compound 0.08 µM): 0.513
- relative viability (A-427; first compound 0.253 µM): 0.509
- relative viability (A-427; first compound 0.8 µM): 0.49
- relative viability (A-427; first compound 2.53 µM): 0.502
- relative viability (A-427; first compound 8 µM): 0.548
